Source: patent US20100081642A1, “CB-1 RECEPTOR MODULATOR PHARMACEUTICAL FORMULATIONS” (priority 2008, published 2010)
In brackets after ≈: the same amount, converted by molar mass. Where two headings read alike, the source gives them in different places.

Experiment: Solubility of Compound I in various vehicles (high throughput screening, HPLC assay of solution phase)
Format: physicochemical
Procedure: Solubility of Compound 1 was determined using a high throughput screening method.
The above solubilities were determined by adding Compound I to the test system and stirred. Following an equilibrium time, the material in the solution phase is assayed by HPLC to determine solubility.

CC(C)(F)[C@H](c1cc(F)cc(C#N)c1)C1CN([C@@H](c2ccc(Cl)cc2)c2cccc(-c3n[nH]c(=O)o3)c2)C1 [Compound I, 3-[(1S)-1-(1-{(S)-(4-chlorophenyl)[3-(5-oxo-4,5-dihydro-1,3,4-oxadiazol-2-yl)phenyl]methyl}azetidin-3-yl)-2-fluoro-2-methylpropyl]-5-fluorobenzonitrile]
solubility (aqueous with cosolvent or surfactant or cyclodextrin, thermodynamic from solid, vehicle CREMOPHOR EL (aqueous solution), free base, read-out: Solubility in vehicle at ambient temperature): < 0.04 mg/mL | solubility (aqueous with cosolvent or surfactant or cyclodextrin, thermodynamic from solid, vehicle Methyl Cellulose (aqueous solution), free base, read-out: Solubility in vehicle at ambient temperature): < 0.04 mg/mL | solubility (aqueous with cosolvent or surfactant or cyclodextrin, thermodynamic from solid, vehicle Methyl Cellulose with SDS (aqueous solution), free base, read-out: Solubility in vehicle at ambient temperature): < 0.04 mg/mL | solubility (aqueous with cosolvent or surfactant or cyclodextrin, thermodynamic from solid, vehicle POLYSORBATE 80 (aqueous solution), free base, read-out: Solubility in vehicle at ambient temperature): < 0.04 mg/mL | solubility (aqueous with cosolvent or surfactant or cyclodextrin, thermodynamic from solid, vehicle Sodium lauryl sulfate (aqueous solution), free base, read-out: Solubility in vehicle at ambient temperature): < 0.04 mg/mL | solubility (aqueous with cosolvent or surfactant or cyclodextrin, thermodynamic from solid, vehicle Vitamin E TPGS (aqueous solution), free base, read-out: Solubility in vehicle at ambient temperature): < 0.04 mg/mL | solubility (fassgf or other biorelevant, thermodynamic from solid, vehicle Simulated gastric fluids (fasted and fed), free base, read-out: Solubility in vehicle at ambient temperature): < 0.04 mg/mL | Solubility in vehicle at ambient temperature (vehicle 0.01N HCl/34 mMNaCl, free base): 0.007 mg/g | Solubility in vehicle at ambient temperature (vehicle IMWITOR 742, free base): 318 mg/g | Solubility in vehicle at ambient temperature (vehicle IMWITOR:TWEEN (1:1), free base): >240 mg/g | Solubility in vehicle at ambient temperature (vehicle MIGLYOL 812, free base): 86 mg/g | Solubility in vehicle at ambient temperature (vehicle Water, free base): 0.001 mg/g | solubility (water, statement in description, read-out: solubility in water): 0.001 mg/mL (≈ 1.87 µM)
